Patent publication EP4745135A1 (Gluetacs Therapeutics (Shanghai) Co., Ltd., priority 2023, dated 2025)

Tests used:
[1] = tested on: Human myeloid monocytic leukemia cell (MV-4-11); assay: Tumor cell proliferation inhibition (CellTiter-Meiluncell luminescent cell viability assay); conditions: MV4-11, 96 h; for inhibition at 0.01 µM: read-out: Inhibition Rate at 10 nM (%); for inhibition at 0.5 µM: read-out: Inhibition Rate at 500 nM (%)
[2] = tested on: Human multiple myeloma cell (MM.1S); assay: as above; conditions: for inhibition at 0.01 µM / inhibition at 0.5 µM: Homo sapiens, MM1.S, 96 h; for inhibition at 0.01 µM: read-out: Inhibition Rate at 10 nM (%); for inhibition at 0.5 µM: read-out: Inhibition Rate at 500 nM (%); for Inhibition Rate at 500 nM (%): MM.1S, 96 hours
Protocol: The tumor cells used herein were cultured in a cell culture medium listed in table 2 at 37°C in an incubator with 5% CO2. Prior to experimentation, all cell lines used were correctly identified by STR profiling, and tested negative for mycoplasma contamination using a mycoplasma detection kit through routine screenings.
The IC50 values of the compounds of the present disclosure (including the compounds in Table 1 and Examples) were determined using the CellTiter-Meiluncell Luminescent Cell Viability Assay Kit from Dalian Meilun Biotech Co., Ltd. The detailed procedure is as follows: Tumor cells were seeded in 96-well cell culture plates at the densities specified in Table 3. On the following day, the test compounds of the present disclosure were subjected to serial dilution. The dilution can be performed according to one of the following two methods: • (1) The first dilution method: The test compounds of the present disclosure (including the compounds in Table 1 and Examples) were subjected to 5-fold serial dilutions starting from a highest concentration of 2000 µM, resulting in a total of 9 concentrations from high to low (2000, 400, 80, 16, 3.2, 0.64, 0.128, 0.0256, 0.00512 µM). Subsequently, 0.5 µL of the test compound dilution was transferred into the 96-well plate containing the cells, with each well containing 100 µL of cell culture medium. […] Into the 96-well plate, the diluted test compounds and corresponding detection reagents were added, resulting in final test compound concentrations of 500 nM and 10 nM, respectively. The experimental procedure is described below using the diluted 2 µM test compound as an example.
0.5 µL of the aforementioned diluted compound of the present disclosure (including the compounds in Table 1 and Examples) was added to the seeded cells in 100 µL of medium, yielding a final test compound concentration of 10 nM. After the cells were treated with the compounds of the present disclosure for a specified period, the cell viability assay reagent was added to the culture medium according to the kit's instructions to determine cell viability. […] All controls were treated using the same procedure as the compounds of the present disclosure. The growth inhibition curves for the compounds of the present disclosure were plotted using Prism GraphPad software, and the IC50 values were calculated therefrom.

IKZF2 = target: T1, IKZF2 (Homo sapiens, UniProt Q96SW2+Q9UKS7); assay: Western blot, degradation of substrate protein in hPBMCs; assay type: cell-based
T1 construct: effects of the compounds of the present disclosure on the expression of target proteins in cells; endogenous in cells; host or cells: human PBMCs (Milecell Biotechnologies)
T1 sequence (Q9UKS7 whole entry): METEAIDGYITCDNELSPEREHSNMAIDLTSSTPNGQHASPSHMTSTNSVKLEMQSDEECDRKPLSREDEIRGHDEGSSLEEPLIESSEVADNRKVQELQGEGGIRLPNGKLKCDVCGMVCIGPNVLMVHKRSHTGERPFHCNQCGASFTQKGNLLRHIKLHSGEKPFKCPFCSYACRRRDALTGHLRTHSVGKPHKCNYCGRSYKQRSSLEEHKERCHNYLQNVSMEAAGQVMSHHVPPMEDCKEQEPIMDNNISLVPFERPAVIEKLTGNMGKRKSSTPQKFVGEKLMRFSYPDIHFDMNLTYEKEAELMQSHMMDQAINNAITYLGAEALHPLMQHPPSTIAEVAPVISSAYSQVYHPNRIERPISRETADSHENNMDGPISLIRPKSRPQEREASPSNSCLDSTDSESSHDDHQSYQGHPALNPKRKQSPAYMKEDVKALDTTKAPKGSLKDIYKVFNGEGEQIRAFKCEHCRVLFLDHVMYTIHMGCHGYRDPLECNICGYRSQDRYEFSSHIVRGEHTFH
T1 sequence (Q96SW2 whole entry): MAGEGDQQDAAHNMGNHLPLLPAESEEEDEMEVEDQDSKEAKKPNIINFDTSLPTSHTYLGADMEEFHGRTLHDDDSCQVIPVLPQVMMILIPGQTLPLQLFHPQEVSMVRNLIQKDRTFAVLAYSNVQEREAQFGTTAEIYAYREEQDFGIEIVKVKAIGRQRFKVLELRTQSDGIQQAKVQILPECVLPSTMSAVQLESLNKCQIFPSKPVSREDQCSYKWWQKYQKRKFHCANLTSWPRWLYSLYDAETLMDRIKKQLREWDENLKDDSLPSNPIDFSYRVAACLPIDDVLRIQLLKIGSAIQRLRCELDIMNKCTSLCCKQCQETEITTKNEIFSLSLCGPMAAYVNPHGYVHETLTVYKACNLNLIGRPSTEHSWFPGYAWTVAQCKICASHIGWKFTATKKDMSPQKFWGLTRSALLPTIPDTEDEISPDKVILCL
T1 sequence (Q16531 whole entry partner): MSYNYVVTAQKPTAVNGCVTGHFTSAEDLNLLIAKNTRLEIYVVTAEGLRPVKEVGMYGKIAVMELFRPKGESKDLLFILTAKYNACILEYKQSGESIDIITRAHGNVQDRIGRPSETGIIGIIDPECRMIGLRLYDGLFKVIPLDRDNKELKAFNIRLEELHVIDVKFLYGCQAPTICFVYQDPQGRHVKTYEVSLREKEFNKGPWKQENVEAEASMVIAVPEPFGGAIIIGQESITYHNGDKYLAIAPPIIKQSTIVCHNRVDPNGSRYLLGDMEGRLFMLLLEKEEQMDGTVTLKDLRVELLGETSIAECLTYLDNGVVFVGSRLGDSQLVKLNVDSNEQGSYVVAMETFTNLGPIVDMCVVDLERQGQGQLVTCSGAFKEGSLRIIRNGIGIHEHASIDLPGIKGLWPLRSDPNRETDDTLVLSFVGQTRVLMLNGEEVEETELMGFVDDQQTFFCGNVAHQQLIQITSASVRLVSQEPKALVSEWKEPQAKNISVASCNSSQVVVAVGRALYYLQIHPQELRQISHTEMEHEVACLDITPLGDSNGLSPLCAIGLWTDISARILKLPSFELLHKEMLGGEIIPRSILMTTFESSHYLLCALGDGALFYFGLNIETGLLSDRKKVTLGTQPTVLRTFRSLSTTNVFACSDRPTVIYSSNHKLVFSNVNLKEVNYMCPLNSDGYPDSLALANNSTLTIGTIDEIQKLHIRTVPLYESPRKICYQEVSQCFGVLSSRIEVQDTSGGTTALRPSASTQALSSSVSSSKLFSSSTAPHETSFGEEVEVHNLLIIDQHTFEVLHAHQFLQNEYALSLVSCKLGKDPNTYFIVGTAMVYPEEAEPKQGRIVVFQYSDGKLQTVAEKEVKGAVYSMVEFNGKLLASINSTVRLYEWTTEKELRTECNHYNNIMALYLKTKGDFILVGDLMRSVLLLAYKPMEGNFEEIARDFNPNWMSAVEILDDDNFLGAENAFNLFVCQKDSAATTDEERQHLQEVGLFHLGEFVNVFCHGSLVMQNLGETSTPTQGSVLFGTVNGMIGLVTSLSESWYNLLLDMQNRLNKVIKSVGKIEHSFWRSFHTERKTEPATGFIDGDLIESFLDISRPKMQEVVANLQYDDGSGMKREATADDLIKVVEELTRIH

IKZF1 = target: T2, IKZF1 (Homo sapiens, UniProt Q13422+Q96SW2); assay: as above; assay type: cell-based
T2 construct: effects of the compounds of the present disclosure on the expression of target proteins in cells; endogenous in cells; host or cells: human PBMCs (Milecell Biotechnologies)
T2 sequence (Q13422 whole entry): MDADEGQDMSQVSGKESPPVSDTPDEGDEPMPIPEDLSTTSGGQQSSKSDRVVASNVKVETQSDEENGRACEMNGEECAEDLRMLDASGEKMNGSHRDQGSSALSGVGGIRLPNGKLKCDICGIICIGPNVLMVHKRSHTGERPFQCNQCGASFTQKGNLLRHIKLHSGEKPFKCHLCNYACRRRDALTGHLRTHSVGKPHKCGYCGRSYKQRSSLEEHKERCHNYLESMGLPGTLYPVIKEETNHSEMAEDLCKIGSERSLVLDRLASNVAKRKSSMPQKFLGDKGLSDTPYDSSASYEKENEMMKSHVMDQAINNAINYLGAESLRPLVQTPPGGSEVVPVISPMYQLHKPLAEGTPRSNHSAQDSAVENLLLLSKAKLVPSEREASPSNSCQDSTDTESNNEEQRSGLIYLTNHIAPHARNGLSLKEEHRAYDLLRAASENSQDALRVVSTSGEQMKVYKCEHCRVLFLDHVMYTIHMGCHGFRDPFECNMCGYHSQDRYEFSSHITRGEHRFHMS
T2 sequence (Q96SW2 whole entry): as the sequence (Q96SW2 whole entry) above
T2 sequence (Q16531 whole entry partner): as the sequence (Q16531 whole entry partner) above

CK1α = target: T3, CK1α (Homo sapiens, UniProt P48729+Q96SW2); assay: as above; assay type: cell-based
T3 construct: effects of the compounds of the present disclosure on the expression of target proteins in cells; endogenous in cells; host or cells: human PBMCs (Milecell Biotechnologies)
T3 sequence (P48729 whole entry): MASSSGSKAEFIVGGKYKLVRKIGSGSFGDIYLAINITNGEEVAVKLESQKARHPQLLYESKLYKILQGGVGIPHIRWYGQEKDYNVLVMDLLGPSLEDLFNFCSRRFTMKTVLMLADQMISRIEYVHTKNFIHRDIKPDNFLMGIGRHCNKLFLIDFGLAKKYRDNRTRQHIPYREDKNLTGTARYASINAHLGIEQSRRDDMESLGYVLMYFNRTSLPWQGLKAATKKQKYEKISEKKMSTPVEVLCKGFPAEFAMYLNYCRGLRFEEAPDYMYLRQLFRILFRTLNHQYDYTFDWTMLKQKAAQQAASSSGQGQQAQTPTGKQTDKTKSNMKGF
T3 sequence (Q96SW2 whole entry): as the sequence (Q96SW2 whole entry) above
T3 sequence (Q16531 whole entry partner): as the sequence (Q16531 whole entry partner) above

IKZF3 = target: T4, IKZF3 (Homo sapiens, UniProt Q96SW2+Q9UKT9); assay: as above; assay type: cell-based
T4 construct: effects of the compounds of the present disclosure on the expression of target proteins in cells; endogenous in cells; host or cells: human PBMCs (Milecell Biotechnologies)
T4 sequence (Q9UKT9 whole entry): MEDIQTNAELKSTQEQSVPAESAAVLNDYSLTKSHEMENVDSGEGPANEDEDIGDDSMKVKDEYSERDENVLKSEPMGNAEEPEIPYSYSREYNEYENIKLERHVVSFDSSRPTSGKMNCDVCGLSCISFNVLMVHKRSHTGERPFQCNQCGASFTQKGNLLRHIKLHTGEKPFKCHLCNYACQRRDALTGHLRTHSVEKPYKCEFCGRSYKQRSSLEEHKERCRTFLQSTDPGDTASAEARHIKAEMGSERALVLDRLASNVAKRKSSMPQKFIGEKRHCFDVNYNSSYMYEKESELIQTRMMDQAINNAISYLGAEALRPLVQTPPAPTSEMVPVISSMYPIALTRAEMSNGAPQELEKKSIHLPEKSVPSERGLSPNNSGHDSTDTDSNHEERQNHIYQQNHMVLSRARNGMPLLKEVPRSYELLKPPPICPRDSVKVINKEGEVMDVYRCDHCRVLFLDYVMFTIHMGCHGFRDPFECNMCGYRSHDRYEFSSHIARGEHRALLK
T4 sequence (Q96SW2 whole entry): as the sequence (Q96SW2 whole entry) above
T4 sequence (Q16531 whole entry partner): as the sequence (Q16531 whole entry partner) above

WEE1 = target: T5, WEE1 (Homo sapiens, UniProt P30291+Q96SW2); assay: as above; assay type: cell-based
T5 construct: effects of the compounds of the present disclosure on the expression of target proteins in cells; endogenous in cells; host or cells: human PBMCs (Milecell Biotechnologies)
T5 sequence (P30291 whole entry): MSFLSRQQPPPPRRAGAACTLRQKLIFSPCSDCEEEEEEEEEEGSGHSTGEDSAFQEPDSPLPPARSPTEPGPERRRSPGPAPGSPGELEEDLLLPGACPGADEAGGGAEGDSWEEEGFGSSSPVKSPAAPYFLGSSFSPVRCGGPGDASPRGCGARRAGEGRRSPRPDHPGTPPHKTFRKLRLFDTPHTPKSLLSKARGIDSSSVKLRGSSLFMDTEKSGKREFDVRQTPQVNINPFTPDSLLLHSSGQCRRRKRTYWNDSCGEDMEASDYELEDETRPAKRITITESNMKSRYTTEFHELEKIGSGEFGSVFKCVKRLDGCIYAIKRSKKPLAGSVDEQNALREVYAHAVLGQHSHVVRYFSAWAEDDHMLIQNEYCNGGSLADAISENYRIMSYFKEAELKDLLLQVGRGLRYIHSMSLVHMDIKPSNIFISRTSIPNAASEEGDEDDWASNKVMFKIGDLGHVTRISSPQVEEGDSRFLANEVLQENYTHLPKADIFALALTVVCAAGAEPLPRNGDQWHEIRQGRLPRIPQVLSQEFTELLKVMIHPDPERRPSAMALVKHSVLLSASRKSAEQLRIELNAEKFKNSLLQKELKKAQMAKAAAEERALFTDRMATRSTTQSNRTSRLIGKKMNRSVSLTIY
T5 sequence (Q96SW2 whole entry): as the sequence (Q96SW2 whole entry) above
T5 sequence (Q16531 whole entry partner): as the sequence (Q16531 whole entry partner) above

[3] = target: T6, human Cereblon WT GST-tagged protein (Homo sapiens, UniProt Q96SW2); assay: CRBN-binding affinity, HTRF (CEREBLON BINDING kit); conditions: for inhibition at 0.5 µM: read-out: Inhibition Rate at 0.5 µM (%); for inhibition at 2 µM: read-out: Inhibition Rate at 2 µM (%)
T6 construct: purchased CISBIO 64BDCRBNPEH
T6 sequence (Q96SW2 whole entry): as the sequence (Q96SW2 whole entry) above

GSPT1 = assay: Western blot, degradation of substrate protein in hPBMCs; assay type: cell-based, Human
[4] = 24 hours treatment, compounds at 50 nM and 500 nM (concentration behind the class not stated)
[5] = Western blot, 24 hours of compound treatment, compounds tested at 50 nM and 500 nM (concentration for the table not stated)

Structure (SMILES)	inhibition at 0.5 µM [3] [%]	inhibition at 2 µM [3] [%]	inhibition at 0.01 µM [1] [%]	inhibition at 0.5 µM [1] [%]	inhibition at 0.01 µM [2] [%]	inhibition at 0.5 µM [2] [%]	IKZF2 substrate protein remaining % (IKZF2; [4])	IKZF 1 substrate protein remaining % (IKZF1; [4])	CK1α substrate protein remaining % (CK1α; [4])	IKZF3 substrate protein remaining % (IKZF3; [4])	Wee1 substrate protein remaining % (WEE1; [4])	GSPT1 substrate protein remaining % (GSPT1; [4])	IKZF2 substrate protein remaining % (IKZF2; [5])	IKZF 1 substrate protein remaining % (IKZF1; [5])	CK1α substrate protein remaining % (CK1α; [5])	IKZF3 substrate protein remaining % (IKZF3; [5])	Wee1 substrate protein remaining % (WEE1; [5])	GSPT1 substrate protein remaining % (GSPT1; [5])	Inhibition Rate at 500 nM (%) [2]
O=C1CCC(N2Cc3c(CN4CC=C(c5ncnc6sc(-c7ccccc7)cc56)CC4)cccc3C2=S)C(=O)N1 (centres unmarked) [GT-08956, 3-(4-((4-(6-phenylthieno[2,3-d]pyrimidin-4-yl)-3,6-dihydropyridin-1(2H)-yl)methyl)-1-thioxoisoindolin-2-yl)piperidine-2,6-dione]	53 to 60	60 to 80	18 to 25	40 to 60	20 to 30	40 to 50	B (80%< substrate protein remaining %≤ 100%)	B (80%< substrate protein remaining %≤ 100%)	B (80%< substrate protein remaining %≤ 100%)	B (80%< substrate protein remaining %≤ 100%)	A (0% ≤ substrate protein remaining % ≤ 80%)	A (0% ≤ substrate protein remaining % ≤ 80%)							
O=C1CCC(N2Cc3c(CN4C5CCC4CN(c4cccc(Cl)c4Cl)C5)cccc3C2=S)C(=O)N1 (centres unmarked) [GT-08471, 3-(4-((3-(2,3-dichlorophenyl)-3,8-diazabicyclo[3.2.1]octan-8-yl)methyl)-1-thioxoisoindolin-2-yl)piperidine-2,6-dione]	30 to 40	60 to 80	40 to 60	40 to 60	40 to 50	40 to 50							B (80%< substrate protein remaining %≤ 100%)	B (80%< substrate protein remaining %≤ 100%)	B (80%< substrate protein remaining %≤ 100%)	B (80%< substrate protein remaining %≤ 100%)	B (80%< substrate protein remaining %≤ 100%)	A (0% ≤ substrate protein remaining % ≤ 80%)	
O=C1CCC(N2Cc3c(CN4CC=C(c5cccc6c(F)cccc56)CC4)cccc3C2=S)C(=O)N1 (centres unmarked) [GT-08856, 3-(4-((4-(5-fluoronaphthalen-1-yl)-3,6-dihydropyridin-1(2H)-yl)methyl)-1-thioxoisoindolin-2-yl)piperidine-2,6-dione]	30 to 40	53 to 60	40 to 60	40 to 60	20 to 30	40 to 50													
O=C1CCC(N2Cc3cc(CN4CCCN(c5cccc(Cl)c5Cl)CC4)ccc3C2=S)C(=O)N1 (centres unmarked) [GT-08481, 3-(5-((4-(2,3-dichlorophenyl)-1,4-diazepan-1-yl)methyl)-1-thioxoisoindolin-2-yl)piperidine-2,6-dione]	60 to 80	80 to 100	18 to 25	60 to 80	30 to 40	70 to 80							B (80%< substrate protein remaining %≤ 100%)	B (80%< substrate protein remaining %≤ 100%)	B (80%< substrate protein remaining %≤ 100%)	B (80%< substrate protein remaining %≤ 100%)	B (80%< substrate protein remaining %≤ 100%)	A (0% ≤ substrate protein remaining % ≤ 80%)	
O=C1CCC(N2Cc3cc(CN4C5CCC4CN(C(c4ccccc4)c4ccccc4)C5)ccc3C2=S)C(=O)N1 (centres unmarked) [GT-07850, 3-(5-((3-benzhydryl-3,8-diazabicyclo[3.2.1]octan-8-yl)methyl)-1-thioxoisoindolin-2-yl)piperidine-2,6-dione]	40 to 53	80 to 100	40 to 60	40 to 60	30 to 40								A (0% ≤ substrate protein remaining % ≤ 80%)	B (80%< substrate protein remaining %≤ 100%)	B (80%< substrate protein remaining %≤ 100%)	B (80%< substrate protein remaining %≤ 100%)	A (0% ≤ substrate protein remaining % ≤ 80%)	A (0% ≤ substrate protein remaining % ≤ 80%)	la7
O=C1CCC(N2Cc3cc(CN4CCN(c5cncc(Cl)c5Cl)CC4)ccc3C2=S)C(=O)N1 (centres unmarked) [GT-09231, 3-(5-((4-(4,5-dichloropyridin-3-yl)piperazin-1-yl)methyl)-1-thioxoisoindolin-2-yl)piperidine-2,6-dione]	60 to 80	80 to 100	30 to 40	40 to 60									A (0% ≤ substrate protein remaining % ≤ 80%)	A (0% ≤ substrate protein remaining % ≤ 80%)	A (0% ≤ substrate protein remaining % ≤ 80%)	A (0% ≤ substrate protein remaining % ≤ 80%)	B (80%< substrate protein remaining %≤ 100%)	A (0% ≤ substrate protein remaining % ≤ 80%)	
O=C1CCC(N2Cc3c(CN4CCN(c5cc(Cl)ccc5Cl)CC4)cccc3C2=S)C(=O)N1 (centres unmarked) [GT-08501, 3-(4-((4-(2,5-dichlorophenyl)piperazin-1-yl)methyl)-1-thioxoisoindolin-2-yl)piperidine-2,6-dione]	30 to 40	53 to 60	40 to 60	40 to 60	50 to 60	60 to 70							A (0% ≤ substrate protein remaining % ≤ 80%)	A (0% ≤ substrate protein remaining % ≤ 80%)	B (80%< substrate protein remaining %≤ 100%)	B (80%< substrate protein remaining %≤ 100%)	A (0% ≤ substrate protein remaining % ≤ 80%)	A (0% ≤ substrate protein remaining % ≤ 80%)	

Second part, led by results:

inhibition at 0.5 µM [3] [%]	inhibition at 2 µM [3] [%]	Structure (SMILES)	inhibition at 0.01 µM [1] [%]	inhibition at 0.5 µM [1] [%]	inhibition at 0.01 µM [2] [%]	inhibition at 0.5 µM [2] [%]	IKZF2 substrate protein remaining % (IKZF2; [4])	IKZF 1 substrate protein remaining % (IKZF1; [4])	CK1α substrate protein remaining % (CK1α; [4])	IKZF3 substrate protein remaining % (IKZF3; [4])	Wee1 substrate protein remaining % (WEE1; [4])	GSPT1 substrate protein remaining % (GSPT1; [4])	IKZF2 substrate protein remaining % (IKZF2; [5])	IKZF 1 substrate protein remaining % (IKZF1; [5])	CK1α substrate protein remaining % (CK1α; [5])	IKZF3 substrate protein remaining % (IKZF3; [5])	Wee1 substrate protein remaining % (WEE1; [5])	GSPT1 substrate protein remaining % (GSPT1; [5])	Inhibition Rate at 500 nM (%) [2]
60 to 80	80 to 100	O=C1CCC(N2Cc3cc(CN4CCN(c5c(F)c(F)nc(F)c5F)CC4)ccc3C2=S)C(=O)N1 (centres unmarked) [GT-09250, 3-(5-((4-(perfluoropyridin-4-yl)piperazin-1-yl)methyl)-1-thioxoisoindolin-2-yl)piperidine-2,6-dione]	30 to 40	40 to 60	30 to 40														la7
53 to 60	80 to 100	O=C1CCC(N2Cc3c(CN4CCC(c5ccon5)CC4)cccc3C2=S)C(=O)N1 (centres unmarked) [GT-08817, 3-(4-((4-(isoxazol-3-yl)piperidin-1-yl)methyl)-1-thioxoisoindolin-2-yl)piperidine-2,6-dione]	40 to 60	30 to 40	20 to 30	40 to 50							B (80%< substrate protein remaining %≤ 100%)	B (80%< substrate protein remaining %≤ 100%)	B (80%< substrate protein remaining %≤ 100%)	B (80%< substrate protein remaining %≤ 100%)	A (0% ≤ substrate protein remaining % ≤ 80%)	B (80%< substrate protein remaining %≤ 100%)	
40 to 53	60 to 80	Cc1ccsc1C1CCN(Cc2cccc3c2CN(C2CCC(=O)NC2=O)C3=S)CC1 (centres unmarked) [GT-08314, 3-(4-((4-(3-methylthiophen-2-yl)piperidin-1-yl)methyl)-1-thioxoisoindolin-2-yl)piperidine-2,6-dione]	40 to 60	60 to 80			B (80%< substrate protein remaining %≤ 100%)	B (80%< substrate protein remaining %≤ 100%)	B (80%< substrate protein remaining %≤ 100%)	B (80%< substrate protein remaining %≤ 100%)	A (0% ≤ substrate protein remaining % ≤ 80%)	B (80%< substrate protein remaining %≤ 100%)							
40 to 53	80 to 100	O=C1CCC(N2Cc3c(CN4C[C@@H]5C[C@H]4CN5c4cccc(Cl)c4Cl)cccc3C2=S)C(=O)N1 (stereo partly drawn) [GT-08468, 3-(4-(((1S,4S)-5-(2,3-dichlorophenyl)-2,5-diazabicyclo[2.2.1]heptan-2-yl)methyl)-1-thioxoisoindolin-2-yl)piperidine-2,6-dione]	40 to 60	40 to 60	40 to 50	50 to 60							B (80%< substrate protein remaining %≤ 100%)	B (80%< substrate protein remaining %≤ 100%)	B (80%< substrate protein remaining %≤ 100%)	B (80%< substrate protein remaining %≤ 100%)	B (80%< substrate protein remaining %≤ 100%)	A (0% ≤ substrate protein remaining % ≤ 80%)	
